Read-outs that look alike come from different tables or passages of the source.

For series [1] the following is noted: in vitro; cited from earlier work.
The subject of another series is calcium levels in cells. The note with it: cited from earlier work.
The next series has as its system microtubule. Particulars: cited from earlier work.
A further series has as its system human tumors. The note with it: clinical trials; cited from earlier work.
The conditions of series [2]: cited from earlier work.
Series [3] has as its system phosphorylation events which are associated with receptor activation. The note with it: cited from earlier work.
Series [4] has as its system A2780 human ovarian cancer cells. Briefly: Colony growth inhibition, 24 hr exposure. The class given is cell-based. The note with it: colonies counted after 5 days. The procedure: (§1) A2780 human ovarian cancer cells are available from the ATCC. The cells were cultured in RPMI 1640 with 10% FCS under standard conditions. See the ATCC catalog. The culture media contained penicillin and streptomycin and in some instances, insulin.
(§2) Cells (500) were plated in 6-well plates and allowed to grow overnight. […] Controls were conducted by adding DMSO vehicle in complete media. […] After 5 days of incubation, the cells were washed once with PBS and then stained with methylene blue in 40% methanol for 20 min. The wells were rinsed gently with water and allowed to air dry. Colonies were counted by hand.

Series [5] has as its system A2780-CP70 cells (cisplatin-resistant). Briefly: Colony growth inhibition, 24 hr exposure. Particulars: Homo sapiens, colonies counted after 5 days. The class given is cell-based. The procedure: (§3) A2780-CP70 are a selected subline of A2780 which are stably resistant to cisplatin in the absence of continuous exposure. These cells were obtained from Robert Ozols, MD at the Fox Chase Cancer Center, Philadelphia, Pa., USA. These cells were cultured as described above.
as §2

A further series can be described thus: clinical. The note with it: human, plasma, 100 mg/m^2.
Series [6] deals with A2780 cells. As to the kind of experiment: Colony assay, compound 1 followed by paclitaxel. The class given is cell-based, human. Particulars: compound 1 (0, 1 and 5 μM) 24 hr, then compound 3 (paclitaxel, 0 to 0.01 μM) 24 hr. How it is done: as §1
(§4) Cells were incubated overnight in serum-containing medium, then washed once and treated with compound 1 (0, 1 and 5 μM). […] The resulting cells were washed once with PBS, treated with serum-containing media and incubated for 5 days. The cells were then fixed and stained with methylene blue in 40% methanol and the colonies were counted. FIGS. 2 and 3 show the results for the A2780 and A2780-CP70 cells, respectively. Data are presented as a percent of control (DMSO vehicle) growth.

Series [7] concerns A2780-CP70 cells. Briefly: Colony assay, compound 1 in combination with carboplatin. The format is cell-based, human. The procedure:
as §3
(§5) Cells were incubated overnight in serum-containing medium, then washed once and treated with compound 1 (5 μM). After 24 hr, the cells were washed once with PBS and then treated with carboplatin (1 to ~200 μM) for an additional 24 hr. The resulting cells were washed once with PBS, treated with serum-containing media and incubated for 5 days. The cells were then fixed and stained with methylene blue in 40% methanol and the colonies were counted. […] Data are presented as a percent of control (DMSO vehicle) growth.

The conditions of series [8]: at least; fixed dose 100 mg/m^2/d, by the 8th day of administration; read-out: plasma levels in humans; cited from earlier work.
In series [9] the test system is A2780-CP70 cells. As to the kind of experiment: Monolayer assay, compound 1 followed by paclitaxel. The format is cell-based, human. The note with it: compound 1 (5 μM) 24 hr, then paclitaxel (0 to 0.007 μM) 24 hr. The procedure: as §3
(§6) For each of the cell types, 50,000 cells were plated per well in 24-well tissue culture plates. One mL of medium was added to each well and the cells were incubated overnight at 37° C. The media was carefully aspirated away and media (1 mL) containing compound 1 (5 μM) or DMSO vehicle control was added to each well. After incubating the cells for 24 hr at 37° C., the media from each well was carefully aspirated away and each well was washed twice with serum-free media. […] After the incubation, the media was aspirated away and each well was washed twice with serum-free media. Serum-containing media was then added to each well and all plates were incubated for 4 days at 37° C. At the end of 4 days, the media was aspirated off and wells were fixed and stained with crystal violet in methanol. The wells were air dried and eluted with sodium citrate and ethanol. The optical density (OD) was determined for each of the well eluates at 540 nm. The percent relative growth was calculated by dividing the mean OD of identically treated wells by the OD of the control and multiplying by 100.

Series [10] relates to nonvoltage-gated and voltage-gated calcium channels. Particulars: cited from earlier work.
A short description of series [11]: Toxicity of compound 1 in patients.
In series [12] the test system is production of arachidonic acid. The note with it: cited from earlier work.
The test system of series [13] is A2780 cells. As to the kind of experiment: Monolayer assay, compound 1 followed by paclitaxel. The format is cell-based, human. Particulars: compound 1 (5 μM) 24 hr, then paclitaxel (0 to 0.007 μM) 24 hr. How it is done:
as §1, §6

For series [14], the system named is A2780 cells. Briefly: Colony assay, compound 1 in combination with carboplatin. The format is cell-based, human. The procedure:
as §1, §5

In series [15] the test system is A2780-CP70 cells. Briefly: Colony assay, compound 1 followed by paclitaxel. Particulars: compound 1 (0, 1 and 5 μM) 24 hr, then compound 3 (paclitaxel, 0 to 0.01 μM) 24 hr. The class given is cell-based, human. The procedure: as §3, §4
The conditions of series [16]: both in vitro and in vivo; cited from earlier work.
The test system of series [17] is A2780-CP70 cells. Briefly: Colony assay, paclitaxel followed by compound 1. The format is cell-based, human. Particulars: paclitaxel (0.003 μM) 24 hr, then compound 1 (0 to 10 μM); cisplatin-resistant A2780-CP70. The procedure:
as §3
The cells were again washed with PBS and treated with compound 1 (0 to 10 μM) for 24 hr, washed again with PBS and incubated for 5 days in drug-free media. The resulting cells were fixed, stained and the colonies were counted. Data are presented in FIGS. 4 and 5 as a percentage of control growth (DMSO treatment only).

The conditions of series [18]: 100 mg/m^2/day.
Series [19] in a line: Stability of compound 1 in PEG-400 solution. The format is physicochemical. The note with it: temperatures of up to 50° C. How it is done:
Compound 1 (NSC 609974) is available from the National Cancer Institute as a white powder. Preferably, it is dispensed as a 100 mg/mL solution in PEG-400. Compound 1 in PEG-400 solution is stable for at least 3 months at temperatures of up to 50° C. It is administered as a measured liquid dose daily for 8 days or more. It is recommended that patients take nothing by mouth for 3 hours prior to and 1 hour after taking the compound 1.

The conditions of series [20]: humans, 100 mg/m^2/d; cited from earlier work.
For series [21], the system named is MDA 231 human breast cancer cells. Briefly: Monolayer assay, compound 1 followed by paclitaxel. Particulars: compound 1 (5 μM) 24 hr, then paclitaxel (0 to 0.007 μM) 24 hr; MDA 231 monolayer. The class given is cell-based. The procedure:
MDA-231 hormone-resistant human breast cancer cells from ATCC were cultured in DMEM with 10% FCS and penicillin/streptomycin, under standard conditions.
as §6

In series [22] the test system is receptor-mediated calcium entry (RMCE) in platelets, endothelial cells and neutrophils. Particulars: cited from earlier work.
The subject of series [23] is voltage-gated L-type calcium channels in vascular smooth muscle cells. Particulars: vascular smooth muscle cells under patch clamp; cited from earlier work.
In series [24] the test system is paclitaxel-induced neutropenia. Particulars: cited from earlier work.
The mark [25] stands for this setting: carboplatin first, then compound 1.
[26] abbreviates: compound 1 (5 μM) 24 hr, then carboplatin (1 to ~200 μM) 24 hr.

On to `CC(=O)N1CCN(c2ccc(OCC3COC(Cn4ccnc4)(c4ccc(Cl)cc4Cl)O3)cc2)CC1` (stereo not drawn) [ketoconazole], for which, in series [1], the “effect on activity of paclitaxel” value was “augment the activity of paclitaxel”. The “effect on calcium levels in cells” value with calcium levels in cells is listed as “effect calcium levels in cells”.

Consider `CC(=O)O[C@H]1C(=O)[C@@]2(C)[C@H]([C@H](OC(=O)c3ccccc3)[C@]3(O)C[C@H](OC(=O)[C@H](O)[C@@H](NC(=O)c4ccccc4)c4ccccc4)C(C)=C1C3(C)C)[C@]1(OC(C)=O)CO[C@@H]1C[C@@H]2O` [Compound 3, Paclitaxel], for which the “effect on microtubule polymerization” value in the series on microtubule is listed as “promotion of microtubule polymerization”. In addition, the “efficacy in human tumors” value in the series with human tumors is “demonstrated efficacy in several human tumors”. Further, the “dose at which dose limiting toxicity of peripheral neuropathy has been seen” value in series [2] (paclitaxel infusion over 3-24 hours every 21 days) is “above 300 mg/m^2”. Also, in series [2] (patients), the toxicities of paclitaxel result is “nausea, emesis, diarrhea, neutropenia, thrombocytopenia, anemia, hair loss, myalgia, cardiac conduction abnormalities, hypersensitivity reactions, peripheral and autonomic neuropathy, mucositis”.

Take `CCC(C)n1ncn(-c2ccc(N3CCN(c4ccc(OCC5COC(Cn6cncn6)(c6ccc(Cl)cc6Cl)O5)cc4)CC3)cc2)c1=O` (stereo not drawn) [itraconazole]: the “effect on calcium levels in cells” value with calcium levels in cells is listed as “effect calcium levels in cells”.

With `Clc1ccc(COC(Cn2ccnc2)c2ccc(Cl)cc2Cl)c(Cl)c1` (stereo not drawn) [miconazole], the “effect on calcium levels in cells” value with calcium levels in cells is on record as “effect calcium levels in cells”.

On to `Clc1ccc(COC(Cn2ccnc2)c2ccc(Cl)cc2Cl)cc1` (stereo not drawn) [econazole], for which the “effect on calcium levels in cells” value in the series with calcium levels in cells is reported as “effect calcium levels in cells”.

As to `NC(=O)c1nnn(Cc2cc(Cl)c(C(=O)c3ccc(Cl)cc3)c(Cl)c2)c1N` [Compound 1, 5-amino-1-(4-(4-chlorobenzoyl)-3,5-dichlorobenzyl)-1,2,3-triazole-4-carboxamide], the “effect on phosphorylation events” value in series [3] is listed as “inhibits phosphorylation events”. Besides, the IC50 turned out to be 3 µM in [4] and 9.5 µM in series [5]. Moreover, the concentration at 192 h in the series “clinical” fell in the range of 1 to 5 µM. The “combination effect on growth” value in the series on A2780 cells [6] is “supra-additive effect”; with A2780-CP70 cells [7] (setting [26]) it was “sub-additive effect”; with A2780 cells [14] (setting [26]) it was “sub-additive effect”; in the series on A2780-CP70 cells [15] it was “supra-additive effect”; in the series on A2780-CP70 cells [17], “additive effect”. Moreover, the “combination effect on growth, reversed sequence” value with A2780-CP70 cells [7] (setting [25]) and in the series with A2780 cells [14] (setting [25]) was “sub-additive effect” in each case. For the same molecule, the concentration was 1 to 5 µM in series [8] and 5 to 10 µM in series [18] (read-out: usual plasma levels, plateau (molar)). In addition, the “combination effect on percent relative growth” value (in the series with A2780-CP70 cells [9]; with A2780 cells [13]; in series [21]) was “supra-additive effect” in each case. Also, the “inhibition of calcium uptake” value in series [10] is given as “inhibitor of calcium uptake”. Besides, in series [11] (human, in vivo), the common low-grade toxicities entry was “nausea and emesis”. The uncommon toxicities entry in series [11] (human, in vivo) is “mood changes (low-grade), peripheral neuropathy (mild to moderate) and neutropenia”. Further, the “toxicity at dosing level” value in series [11] (patients, 100 mg/m^2/day) was “no significant toxicity”. Besides, in series [12], the “effect on production of arachidonic acid” value is “alter production of arachidonic acid”. The single agent activity entry in series [16] was “antiproliferative, anti-invasive, and anti-metastatic properties”. The “usual plasma levels, plateau” value in series [18] fell in the range of 3 to 4 µg/mL. For the same molecule, the “stability in PEG-400 solution” value in [19] is reported as “at least 3 months”. Also, the “toxicity at fixed dose” value in [20] was “no significant toxicity”.

As for `OC(Cn1cncn1)(Cn1cncn1)c1ccc(F)cc1F` [fluconazole], in the series on calcium levels in cells, the “effect on calcium levels in cells” value was “effect calcium levels in cells”.

For the molecule `COc1ccc(CCCOC(Cn2ccnc2)c2ccc(OC)cc2)cc1` (stereo not drawn) [Compound 2], the “inhibition of RMCE” value in [22] is reported as “inhibits RMCE”. Besides, the “block of voltage-gated L-type calcium channels” value in series [23] was “blocks voltage-gated L-type calcium channels”.

B1: G-CSF: cytokine which blunts paclitaxel-induced neutropenia; recombinant cytokine from Amgen (protein, UniProt P09919 31-207, looked up)
Granulocyte …: TPLGPASSLPQSFLLKCLEQVRKIQGDGAALQEKLVSECATYKLCHPEELVLLGHSLGIPWAPLSSCPSQALQLAGCLSQLHSGLFLYQGLLQALEGISPELGPTLDTLQLDVADFATTIWQQMEELGMAPALQPTQGAMPAFASAFQRRAGGVLVASHLQSFLEVSYRVLRHLAQP
modifications: filgrastim
notes: recombinant cytokine from Amgen
Take B1: the “maintenance of paclitaxel dose” value in series [24] (G-CSF escalation up to 30 μg/kg/d, paclitaxel alone or with compound 1) was “associated with maintenance of the dose of paclitaxel”. Moreover, in series [24] (in vivo), the “effect on paclitaxel-induced neutropenia” value was “blunts paclitaxel-induced neutropenia”.
